Earlier results as cited in patent US20090117146A1 (priority 2005, published 2009).

Tested on: adenyl cyclase
Settings: follicles of scalp hair

SMILES	effect on adenyl cyclase activity
C[C@]12CCC(=O)C[C@@H]1CC[C@@H]1[C@@H]2CC[C@]2(C)[C@@H](O)CC[C@@H]12 [dihydrotestosterone]	inhibits adenyl cyclase activity
C[C@]12CC[C@H]3[C@@H](CCC4=CC(=O)CC[C@@]43C)[C@@H]1CC[C@@H]2O [testosterone]	does not
